Measurements published in ChEMBL document CHEMBL1201862, “PubChem BioAssay data set” (2004).
Values belong to the molecule of their own block, whether it stands above or below them. Calls of active or inactive are those of the source.

Key:
[1] = IGROV1 cell killing – plate reader, dry powder samples, PAX8 inhibitor project, dose response (AID 743043); type: functional, cell-based; details: IGROV-1
[2] = OVCAR8 cell viability loss – plate reader, dry powder samples, PAX8 project, dose response (AID 743197); type: functional, cell-based; details: OVCAR-8
Paired box protein Pax-8 = Paired box protein Pax-8 (Homo sapiens, UniProt Q06710); assay: PAX8 transcriptional activity inhibition in RMG-I – RMG-I cells, luciferase, cherry-pick, dose response (AID 687027); type: functional, cell-based;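 further: luciferase reporter driven by Pax8 target thyroperoxidase promoter measured by SteadyGlo luminescence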
Paired box protein Pax-8, sequence (Q06710 whole entry): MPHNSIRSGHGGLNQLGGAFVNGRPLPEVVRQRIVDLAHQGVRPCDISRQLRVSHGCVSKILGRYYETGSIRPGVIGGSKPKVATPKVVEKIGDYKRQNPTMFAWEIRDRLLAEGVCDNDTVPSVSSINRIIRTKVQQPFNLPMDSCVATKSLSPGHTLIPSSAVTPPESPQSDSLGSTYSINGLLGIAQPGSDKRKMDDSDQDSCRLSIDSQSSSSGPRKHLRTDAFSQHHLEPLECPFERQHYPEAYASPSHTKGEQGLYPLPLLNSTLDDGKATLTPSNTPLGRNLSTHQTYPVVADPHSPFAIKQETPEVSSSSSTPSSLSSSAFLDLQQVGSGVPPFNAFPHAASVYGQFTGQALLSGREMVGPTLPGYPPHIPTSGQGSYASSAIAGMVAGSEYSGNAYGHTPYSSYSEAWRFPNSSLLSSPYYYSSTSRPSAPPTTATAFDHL

[3] = OVCAR-3 cell viability loss – plate reader, dry powder samples, PAX8 inhibitor project, dose response (AID 743044); type: functional, cell-based
[4] = A2780 cell killing – plate reader, dry powder samples, cytotoxicity control, dose response (AID 743046); type: functional, cell-based
[5] = viability loss in MITF-independent A375 cells – cell-based, CellTiter-Glo luminescence, dry powder, set 2, counter-screen for MITF inhibitor project, dose response (AID 624489); type: functional; details: A-375;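 further: actives are compounds lowering A375 viability meaning general cytotoxicity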
[6] = cytotoxicity in MITF-independent A375 cells – cell-based, CellTiter-Glo luminescence, dry powder, set 4, counter-screen for MITF inhibitor project, dose response (AID 624364); type: functional; details: A-375;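 further: A375 melanoma cells are MITF independent so this is a counter screen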
[7] = cytotoxicity toward Colo320 cells – cell-based, CellTiter-Glo luminescence, IC50, dose response (AID 1117334); type: functional; details: COLO 320
[8] = rise of 2N DNA cells, HeLa – IC50, dose response (AID 1117349); type: functional, cell-based
[9] = cytotoxicity toward HT-29 cells – cell-based, CellTiter-Glo luminescence, IC50, dose response (AID 1117330); type: functional
[10] = CellTiter-Glo luminescence survival assay, SW480 colon tumor line, concentration-response curve, half-maximal inhibitory concentration (AID 1117338); type: functional
[11] = RKO cell viability reduction, dose response, CellTiter-Glo luminescence (AID 1117322); type: functional
[12] = rise of 4N DNA cells, HeLa – IC50, dose response (AID 1117351); type: functional, cell-based
[13] = HCT116 cell viability decrease, GSK3B pretreatment – CellTiter-Glo, IC50, dose response (AID 1117339); type: functional; details: HCT-116
[14] = viability loss in human Jurkat cells – cell-based, luminescence, cytotoxicity control for P. falciparum gametocyte viability project, dose response (AID 1117277); type: functional;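 further: potency reflects loss of cellular ATP meaning fewer viable cells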
[15] = viability inhibitors of stage V gametocytes – luminescence, dose response (AID 1117278); type: functional, cell-based;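 further: gametocytes exposed to compound for 24 hours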
[16] = reduced cellular PGC1a acetyl-lysine signal – cell-based, cherry-picked samples, dose response (AID 720514); type: functional;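 further: potency may reflect raised or lowered acetylation signal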
[17] = cytotoxicity toward HCT116 cells – cell-based, CellTiter-Glo luminescence, IC50, dose response (AID 1117332); type: functional; details: HCT-116
[18] = Reduced DLD-1 viability, concentration-response, CellTiter-Glo luminescence (AID 1117352); type: functional
[19] = SNU-C1 cell viability reduction, dose response, CellTiter-Glo luminescence (AID 1117323); type: functional, cell-based
Caspase-6 = molecular target: T1, Caspase-6 (Homo sapiens, UniProt P55212); assay: inhibition of CASP6 peptide cleavage – biochemical, VEID-R110 fluorescence, cherry-pick, dose response (AID 720632)
T1 sequence (P55212 whole entry): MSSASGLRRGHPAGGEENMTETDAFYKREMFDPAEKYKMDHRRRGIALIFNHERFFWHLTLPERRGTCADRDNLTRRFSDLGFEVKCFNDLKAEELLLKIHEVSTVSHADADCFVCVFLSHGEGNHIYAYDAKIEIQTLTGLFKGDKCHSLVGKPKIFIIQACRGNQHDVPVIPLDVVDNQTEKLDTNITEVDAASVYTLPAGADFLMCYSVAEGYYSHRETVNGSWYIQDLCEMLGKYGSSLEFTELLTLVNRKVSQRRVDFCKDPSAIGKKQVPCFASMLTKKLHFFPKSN

[20] = molecular target: Mitochondrial peptide methionine sulfoxide reductase (Bos taurus, UniProt P54149); assay: Absorbance-based biochemical high throughput dose response assay for activators of Methionine sulfoxide reductase A (MsrA).; type: functional
Mitochondrial peptide methionine sulfoxide reductase, sequence (P54149 whole entry): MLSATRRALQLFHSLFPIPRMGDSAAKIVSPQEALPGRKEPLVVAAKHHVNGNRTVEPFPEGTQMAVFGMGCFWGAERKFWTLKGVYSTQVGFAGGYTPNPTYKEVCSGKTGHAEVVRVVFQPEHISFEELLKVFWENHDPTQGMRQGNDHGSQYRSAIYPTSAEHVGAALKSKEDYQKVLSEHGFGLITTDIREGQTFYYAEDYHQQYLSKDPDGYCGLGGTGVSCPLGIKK

[21] = molecular target: T2, Histone-lysine N-methyltransferase NSD2 (Homo sapiens, UniProt O96028); type: biochemical
T2 sequence (O96028 whole entry): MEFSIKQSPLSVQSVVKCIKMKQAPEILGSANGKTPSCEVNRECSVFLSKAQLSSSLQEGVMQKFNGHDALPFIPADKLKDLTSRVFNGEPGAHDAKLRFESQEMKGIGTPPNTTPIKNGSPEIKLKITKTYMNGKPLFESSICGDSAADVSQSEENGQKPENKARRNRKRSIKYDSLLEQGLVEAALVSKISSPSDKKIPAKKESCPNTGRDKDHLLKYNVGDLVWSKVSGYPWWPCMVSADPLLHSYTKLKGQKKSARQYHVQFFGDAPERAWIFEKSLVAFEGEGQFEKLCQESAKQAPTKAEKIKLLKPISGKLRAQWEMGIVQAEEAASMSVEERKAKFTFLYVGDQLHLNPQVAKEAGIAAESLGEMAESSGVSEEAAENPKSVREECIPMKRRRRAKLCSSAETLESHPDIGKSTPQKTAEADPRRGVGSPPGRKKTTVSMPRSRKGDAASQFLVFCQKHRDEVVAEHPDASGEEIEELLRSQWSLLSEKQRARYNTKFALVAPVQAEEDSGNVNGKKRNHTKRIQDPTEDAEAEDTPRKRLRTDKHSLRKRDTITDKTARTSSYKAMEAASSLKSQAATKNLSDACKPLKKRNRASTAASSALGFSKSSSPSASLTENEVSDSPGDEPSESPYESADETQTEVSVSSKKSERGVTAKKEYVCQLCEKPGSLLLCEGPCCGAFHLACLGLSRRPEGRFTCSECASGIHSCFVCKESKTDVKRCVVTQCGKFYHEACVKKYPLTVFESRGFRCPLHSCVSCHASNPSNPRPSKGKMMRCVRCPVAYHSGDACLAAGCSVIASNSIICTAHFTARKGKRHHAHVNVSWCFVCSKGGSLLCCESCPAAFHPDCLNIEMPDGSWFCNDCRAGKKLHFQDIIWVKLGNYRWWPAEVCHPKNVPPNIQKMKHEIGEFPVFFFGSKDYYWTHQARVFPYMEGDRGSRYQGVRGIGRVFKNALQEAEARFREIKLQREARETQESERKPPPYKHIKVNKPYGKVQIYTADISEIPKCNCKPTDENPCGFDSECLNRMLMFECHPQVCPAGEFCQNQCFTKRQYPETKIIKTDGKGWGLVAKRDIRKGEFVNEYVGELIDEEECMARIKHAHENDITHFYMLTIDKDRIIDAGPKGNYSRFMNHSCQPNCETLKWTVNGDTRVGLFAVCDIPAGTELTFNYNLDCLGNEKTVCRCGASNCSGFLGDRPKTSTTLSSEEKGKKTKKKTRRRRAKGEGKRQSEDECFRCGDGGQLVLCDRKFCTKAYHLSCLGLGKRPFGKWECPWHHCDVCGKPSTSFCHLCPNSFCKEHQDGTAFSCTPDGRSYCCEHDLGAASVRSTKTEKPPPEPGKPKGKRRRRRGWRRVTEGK

[22] = molecular target: T3, Corticotropin-releasing factor receptor 2/Corticotropin-releasing factor-binding protein (Homo sapiens, UniProt P24387+Q13324); assay: activators of CRF receptor 2 with binding protein – uHTS hits, confirmation (AID 602473); type: functional; details: read-out: EC50_Mean
T3 sequence (Q13324 whole entry): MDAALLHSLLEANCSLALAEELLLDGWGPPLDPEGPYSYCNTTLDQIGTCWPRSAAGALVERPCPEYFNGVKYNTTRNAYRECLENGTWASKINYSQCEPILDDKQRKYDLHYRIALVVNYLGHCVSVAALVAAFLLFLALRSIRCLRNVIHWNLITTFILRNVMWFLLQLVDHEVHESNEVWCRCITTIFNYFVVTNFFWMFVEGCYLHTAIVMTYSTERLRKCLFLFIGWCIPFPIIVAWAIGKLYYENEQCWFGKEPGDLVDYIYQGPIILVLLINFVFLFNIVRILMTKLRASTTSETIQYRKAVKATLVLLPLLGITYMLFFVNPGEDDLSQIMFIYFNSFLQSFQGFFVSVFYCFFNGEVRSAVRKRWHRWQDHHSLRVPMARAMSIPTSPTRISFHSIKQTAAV
T3 sequence (P24387 whole entry): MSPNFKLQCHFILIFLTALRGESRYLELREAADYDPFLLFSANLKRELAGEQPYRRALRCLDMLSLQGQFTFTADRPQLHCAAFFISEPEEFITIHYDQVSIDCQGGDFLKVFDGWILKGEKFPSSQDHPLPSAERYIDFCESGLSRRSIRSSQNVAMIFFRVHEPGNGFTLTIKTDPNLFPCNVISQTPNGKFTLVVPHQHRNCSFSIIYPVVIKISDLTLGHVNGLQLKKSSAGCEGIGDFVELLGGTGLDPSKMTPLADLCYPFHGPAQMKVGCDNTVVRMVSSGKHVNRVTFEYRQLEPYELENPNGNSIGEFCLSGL

Caspase-7 = molecular target: T4, Caspase-7 (Homo sapiens, UniProt P55210); assay: caspase-7 enzyme inhibition, selectivity check – biochemical, DEVD-R110 fluorescence, cherry-pick, selectivity assay for caspase-6 inhibitor project, dose response (AID 743295); type: functional
T4 sequence (P55210 whole entry): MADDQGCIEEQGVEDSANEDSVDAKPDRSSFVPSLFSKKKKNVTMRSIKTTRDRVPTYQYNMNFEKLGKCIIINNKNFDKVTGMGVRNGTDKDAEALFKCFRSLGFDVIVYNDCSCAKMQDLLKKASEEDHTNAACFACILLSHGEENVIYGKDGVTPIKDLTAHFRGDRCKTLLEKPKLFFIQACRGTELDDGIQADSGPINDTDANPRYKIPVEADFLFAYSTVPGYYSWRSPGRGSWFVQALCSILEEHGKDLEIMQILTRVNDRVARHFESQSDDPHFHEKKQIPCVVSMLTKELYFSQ

Protein Tat = Protein Tat (Human immunodeficiency virus type 1 group M subtype B (isolate HXB2)(HIV-1), UniProt P04608); type: functional;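 further: tat binding to TAR RNA read out by fluorescence polarization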
Protein Tat, sequence (P04608 whole entry): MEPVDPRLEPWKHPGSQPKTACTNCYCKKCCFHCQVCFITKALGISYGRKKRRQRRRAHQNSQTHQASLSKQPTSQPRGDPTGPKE

Compound: C[C@@H]1CCCCO[C@H](CN(C)Cc2ccc(C(F)(F)F)cc2)[C@H](C)CN([C@@H](C)CO)C(=O)c2cc(NS(=O)(=O)c3ccc(F)cc3)ccc2O1
AC50 [1]: 37 µM (active)
AC50 [2]: 36.9 µM (active)
AC50 (Paired box protein Pax-8): 5.17 µM (active)
AC50 [3]: 24 µM (active)
AC50 [4]: 55.3 µM (active)

Compound: C[C@@H](NC1=C(Nc2ccccc2)C(=O)c2ccccc2C1=O)c1ccccc1
AC50 [5]: 48.5 µM (active)
AC50 [6]: > 70 µM (inactive)

Compound: C[C@H]1CN([C@@H](C)CO)S(=O)(=O)c2ccc(C#Cc3ccccc3F)cc2O[C@@H]1CN(C)CC1CCOCC1
AC50 [2]: 28.9 µM (active)
AC50 (Paired box protein Pax-8): 10.4 µM (active)
AC50 [3]: 34.1 µM (active)
AC50 [4]: < 0.26 µM (active)

Compound: COc1ccc2cc1Oc1ccc(cc1)C[C@H]1c3c(cc4c(c3Oc3cc5c(cc3OC)CCN(C)[C@@H]5C2)OCO4)CCN1C [CEPHARANTHINE]
IC50 [7]: 1.43 µM (active)
IC50 [8]: > 10 µM (inactive)
IC50 [9]: 1.36 µM (active)
IC50 [10]: 0.308 µM (active)
IC50 [11]: 3.79 µM (active)
IC50 [12]: > 10 µM (inactive)
IC50 [13]: 3.57 µM (active)

Compound: CCCN(CCC)C(=O)Cn1c(=O)n(CCC(=O)NCCc2ccccc2)c(=O)c2ccccc21
IC50 [14]: > 83.3 µM (inactive)
IC50 [15]: > 109 µM (inactive)

Compound: O=C1C=CCCN1C(=O)/C=C/c1cccc(C(F)(F)F)c1
AC50 [16]: 1.77 µM (active)

Compound: CCCCOC(=O)c1ccc(N)cc1 [BUTAMBEN]
IC50 [17]: > 20 µM (inactive)
IC50 [18]: 4.56 µM (active)
IC50 [7]: > 20 µM (inactive)
IC50 [8]: > 10 µM (inactive)
IC50 [9]: > 20 µM (inactive)
IC50 [19]: > 20 µM (inactive)
IC50 [10]: 0.586 µM (active)
IC50 [11]: 0.137 µM (active)
IC50 [12]: > 10 µM (inactive)

AC50 (Caspase-6): 3.93 µM (active)
EC50 [20]: 95.4 µM (inactive)
AC50 [21]: 12.7 µM (active)
EC50 [22]: 5.14 µM (active)
AC50 (Caspase-7): 8.13 µM (active)
Compound: COCCn1c2nc(=O)n(-c3ccccc3)c(=O)c-2nc2ccccc21

IC50 (Protein Tat): > 100 µM (active)
Compound: Cc1ccc(CCC(=O)Nc2ccc(S(N)(=O)=O)cc2)o1

Compound: [O-][n+]1ccc(C2CC2)cc1
IC50 [14]: > 83.4 µM (inactive)
IC50 [15]: > 109 µM (inactive)
